Results from ChEMBL document CHEMBL1140446, “Designed multiple ligands. An emerging drug discovery paradigm” (J Med Chem, 2005).

Assays:
[1] = target: T1, Adrenergic receptor alpha-1 (Homo sapiens, UniProt P35348+P25100+P35368)
T1 sequence (P35348 whole entry): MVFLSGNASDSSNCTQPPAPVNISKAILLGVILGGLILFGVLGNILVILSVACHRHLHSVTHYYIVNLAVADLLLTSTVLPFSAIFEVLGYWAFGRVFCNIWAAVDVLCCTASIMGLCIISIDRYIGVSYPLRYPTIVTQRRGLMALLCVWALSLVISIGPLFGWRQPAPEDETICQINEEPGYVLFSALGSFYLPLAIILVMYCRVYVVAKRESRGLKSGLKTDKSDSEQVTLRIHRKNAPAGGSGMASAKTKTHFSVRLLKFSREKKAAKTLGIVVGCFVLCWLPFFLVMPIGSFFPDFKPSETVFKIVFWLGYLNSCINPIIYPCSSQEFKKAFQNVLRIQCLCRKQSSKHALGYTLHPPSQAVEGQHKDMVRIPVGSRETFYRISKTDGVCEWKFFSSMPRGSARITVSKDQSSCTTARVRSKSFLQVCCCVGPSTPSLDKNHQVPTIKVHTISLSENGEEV
T1 sequence (P25100 whole entry): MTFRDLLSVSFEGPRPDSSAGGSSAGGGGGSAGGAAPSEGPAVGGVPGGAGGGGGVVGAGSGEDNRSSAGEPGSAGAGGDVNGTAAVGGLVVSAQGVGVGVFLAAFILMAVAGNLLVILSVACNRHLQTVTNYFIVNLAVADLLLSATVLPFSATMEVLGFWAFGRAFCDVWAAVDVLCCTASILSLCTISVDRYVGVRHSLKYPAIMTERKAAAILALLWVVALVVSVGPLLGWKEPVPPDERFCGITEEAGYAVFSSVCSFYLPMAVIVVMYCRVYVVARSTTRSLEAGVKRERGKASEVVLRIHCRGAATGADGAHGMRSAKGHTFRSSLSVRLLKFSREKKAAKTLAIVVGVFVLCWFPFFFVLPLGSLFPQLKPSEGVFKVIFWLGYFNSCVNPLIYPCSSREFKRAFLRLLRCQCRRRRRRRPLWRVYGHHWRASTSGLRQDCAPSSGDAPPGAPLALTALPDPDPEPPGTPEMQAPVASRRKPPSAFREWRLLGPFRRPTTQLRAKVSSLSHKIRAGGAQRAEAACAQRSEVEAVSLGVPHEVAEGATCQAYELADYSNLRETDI
T1 sequence (P35368 whole entry): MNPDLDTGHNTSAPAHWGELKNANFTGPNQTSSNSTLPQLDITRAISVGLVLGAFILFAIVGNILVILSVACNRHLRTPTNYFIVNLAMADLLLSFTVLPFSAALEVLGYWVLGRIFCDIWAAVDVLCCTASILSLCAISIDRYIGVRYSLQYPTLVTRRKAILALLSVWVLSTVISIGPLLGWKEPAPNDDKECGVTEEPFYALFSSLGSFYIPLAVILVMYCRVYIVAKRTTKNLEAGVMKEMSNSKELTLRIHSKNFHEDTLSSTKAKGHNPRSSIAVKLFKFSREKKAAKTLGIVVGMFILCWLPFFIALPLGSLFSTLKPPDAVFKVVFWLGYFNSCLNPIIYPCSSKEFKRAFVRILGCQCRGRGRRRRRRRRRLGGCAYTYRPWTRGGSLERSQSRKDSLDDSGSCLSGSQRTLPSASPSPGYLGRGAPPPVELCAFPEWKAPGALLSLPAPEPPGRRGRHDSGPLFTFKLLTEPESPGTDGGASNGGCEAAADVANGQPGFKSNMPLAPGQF
Description: Inhibitory concentration against alpha adrenergic receptor

[2] = target: T2, Sodium-dependent serotonin transporter (Homo sapiens, UniProt P31645); experiment: Negative logarithm causing 50% receptor occupancy against serotonin transporter
[3] = target: T2, Sodium-dependent serotonin transporter
Description: Inhibitory concentration against serotonin transporter

[4] = target: T3, 5-hydroxytryptamine receptor 1A (Homo sapiens, UniProt P08908)
T3 sequence (P08908 whole entry): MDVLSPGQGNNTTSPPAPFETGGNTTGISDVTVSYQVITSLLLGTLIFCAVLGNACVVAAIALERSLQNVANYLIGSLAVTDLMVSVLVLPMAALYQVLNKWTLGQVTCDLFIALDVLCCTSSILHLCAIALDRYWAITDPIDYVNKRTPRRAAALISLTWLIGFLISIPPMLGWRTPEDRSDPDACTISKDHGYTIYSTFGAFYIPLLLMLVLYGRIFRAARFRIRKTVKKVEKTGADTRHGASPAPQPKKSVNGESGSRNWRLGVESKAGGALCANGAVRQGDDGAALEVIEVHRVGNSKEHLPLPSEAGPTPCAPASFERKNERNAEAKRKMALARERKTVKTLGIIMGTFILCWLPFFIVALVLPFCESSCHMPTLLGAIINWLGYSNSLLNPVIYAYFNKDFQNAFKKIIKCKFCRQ
Description: Inhibition constant against 5-hydroxytryptamine 1A receptor

[5] = target: T4, Peroxisome proliferator-activated receptor gamma (Homo sapiens, UniProt P37231)
T4 sequence (P37231 whole entry): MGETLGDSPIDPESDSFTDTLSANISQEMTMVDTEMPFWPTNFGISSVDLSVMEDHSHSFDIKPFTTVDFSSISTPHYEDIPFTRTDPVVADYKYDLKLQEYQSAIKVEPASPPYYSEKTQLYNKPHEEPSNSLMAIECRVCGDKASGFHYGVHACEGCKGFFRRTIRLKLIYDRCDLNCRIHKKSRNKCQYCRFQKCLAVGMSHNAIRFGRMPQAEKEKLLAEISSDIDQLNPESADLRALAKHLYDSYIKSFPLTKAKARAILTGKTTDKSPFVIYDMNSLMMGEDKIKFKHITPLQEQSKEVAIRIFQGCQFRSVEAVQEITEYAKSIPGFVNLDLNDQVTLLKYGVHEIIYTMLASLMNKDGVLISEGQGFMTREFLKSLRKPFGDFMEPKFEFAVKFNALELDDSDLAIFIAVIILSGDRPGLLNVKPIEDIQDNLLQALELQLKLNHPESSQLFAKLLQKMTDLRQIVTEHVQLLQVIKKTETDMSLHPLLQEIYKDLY
Description: Binding affinity towards peroxisome proliferator activated receptor gamma

[6] = target: T5, Peroxisome proliferator-activated receptor alpha (Homo sapiens, UniProt Q07869)
T5 sequence (Q07869 whole entry): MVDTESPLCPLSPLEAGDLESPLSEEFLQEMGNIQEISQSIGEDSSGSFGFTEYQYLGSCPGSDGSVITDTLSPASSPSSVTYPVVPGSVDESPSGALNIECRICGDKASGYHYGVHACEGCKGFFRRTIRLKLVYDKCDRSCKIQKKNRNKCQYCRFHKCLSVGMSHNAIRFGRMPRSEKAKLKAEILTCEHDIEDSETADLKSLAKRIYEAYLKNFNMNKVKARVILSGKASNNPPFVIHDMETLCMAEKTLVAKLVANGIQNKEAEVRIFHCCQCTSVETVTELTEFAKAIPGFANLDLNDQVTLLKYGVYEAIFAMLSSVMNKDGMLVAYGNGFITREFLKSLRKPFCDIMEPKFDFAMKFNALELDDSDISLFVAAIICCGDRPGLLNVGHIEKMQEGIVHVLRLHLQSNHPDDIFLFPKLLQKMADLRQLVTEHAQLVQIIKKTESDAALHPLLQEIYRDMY
Description: Binding affinity towards peroxisome proliferator activated receptor alpha

[7] = target: T6, Peroxisome proliferator-activated receptor delta (Homo sapiens, UniProt Q03181)
T6 sequence (Q03181 whole entry): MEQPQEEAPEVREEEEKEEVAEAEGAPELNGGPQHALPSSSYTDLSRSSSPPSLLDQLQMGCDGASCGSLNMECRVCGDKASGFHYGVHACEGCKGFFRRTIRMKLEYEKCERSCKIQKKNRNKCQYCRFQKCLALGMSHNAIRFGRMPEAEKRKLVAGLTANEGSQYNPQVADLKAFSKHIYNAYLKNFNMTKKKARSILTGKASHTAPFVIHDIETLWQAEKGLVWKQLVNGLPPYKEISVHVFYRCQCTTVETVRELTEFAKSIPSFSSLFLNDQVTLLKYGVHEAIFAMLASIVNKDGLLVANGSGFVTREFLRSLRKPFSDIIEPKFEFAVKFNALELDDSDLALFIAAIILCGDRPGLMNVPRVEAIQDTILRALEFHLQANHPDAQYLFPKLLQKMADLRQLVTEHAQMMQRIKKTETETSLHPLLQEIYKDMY
Description: Binding affinity towards peroxisome proliferator activated receptor delta

[8] = target: T1, Adrenergic receptor alpha-1; experiment: Inhibition constant against alpha adrenergic receptor; type: protein assay
[9] = target: T2, Sodium-dependent serotonin transporter; remark: listed apart in the source
Description: Inhibition constant against serotonin transporter

Substance-K receptor = target: T7, Substance-K receptor (Homo sapiens, UniProt P21452)
T7 sequence (P21452 whole entry): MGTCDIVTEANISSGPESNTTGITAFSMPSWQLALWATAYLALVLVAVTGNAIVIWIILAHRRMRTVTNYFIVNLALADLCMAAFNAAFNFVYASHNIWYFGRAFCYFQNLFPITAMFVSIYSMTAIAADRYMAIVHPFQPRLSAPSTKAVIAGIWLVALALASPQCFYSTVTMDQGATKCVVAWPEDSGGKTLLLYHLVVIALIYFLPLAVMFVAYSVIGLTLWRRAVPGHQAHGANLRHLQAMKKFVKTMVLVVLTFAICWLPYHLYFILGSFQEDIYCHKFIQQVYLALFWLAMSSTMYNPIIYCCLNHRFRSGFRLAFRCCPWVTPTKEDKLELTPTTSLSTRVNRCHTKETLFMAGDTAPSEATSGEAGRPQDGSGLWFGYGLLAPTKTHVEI
Description: Inhibitory concentration against tachykinin receptor 2

Cyclooxygenase = Cyclooxygenase (Homo sapiens, UniProt P35354+P23219)
Description: Inhibitory concentration against prostaglandin G/H synthase

[10] = target: T8, Polyunsaturated fatty acid 5-lipoxygenase (Homo sapiens, UniProt P09917); experiment: Inhibitory concentration against arachidonate 5-lipoxygenase
T8 sequence (P09917 whole entry): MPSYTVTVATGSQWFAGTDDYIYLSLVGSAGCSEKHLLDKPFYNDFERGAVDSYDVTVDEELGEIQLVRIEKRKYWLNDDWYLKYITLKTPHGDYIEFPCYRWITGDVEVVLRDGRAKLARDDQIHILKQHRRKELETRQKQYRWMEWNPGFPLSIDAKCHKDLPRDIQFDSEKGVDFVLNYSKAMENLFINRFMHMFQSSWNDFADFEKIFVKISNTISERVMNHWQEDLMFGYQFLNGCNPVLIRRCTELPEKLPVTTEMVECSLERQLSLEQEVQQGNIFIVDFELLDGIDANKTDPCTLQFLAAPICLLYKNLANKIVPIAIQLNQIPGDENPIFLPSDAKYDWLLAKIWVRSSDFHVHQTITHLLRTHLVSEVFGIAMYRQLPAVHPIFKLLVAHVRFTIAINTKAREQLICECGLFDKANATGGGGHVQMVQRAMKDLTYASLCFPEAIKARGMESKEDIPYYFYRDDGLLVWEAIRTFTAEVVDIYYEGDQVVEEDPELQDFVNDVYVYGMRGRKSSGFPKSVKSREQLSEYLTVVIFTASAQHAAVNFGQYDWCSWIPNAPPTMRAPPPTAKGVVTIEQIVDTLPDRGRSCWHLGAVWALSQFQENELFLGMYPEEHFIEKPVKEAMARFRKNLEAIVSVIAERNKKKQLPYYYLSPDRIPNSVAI

[11] = target: T8, Polyunsaturated fatty acid 5-lipoxygenase

T2 sequence (P31645 whole entry): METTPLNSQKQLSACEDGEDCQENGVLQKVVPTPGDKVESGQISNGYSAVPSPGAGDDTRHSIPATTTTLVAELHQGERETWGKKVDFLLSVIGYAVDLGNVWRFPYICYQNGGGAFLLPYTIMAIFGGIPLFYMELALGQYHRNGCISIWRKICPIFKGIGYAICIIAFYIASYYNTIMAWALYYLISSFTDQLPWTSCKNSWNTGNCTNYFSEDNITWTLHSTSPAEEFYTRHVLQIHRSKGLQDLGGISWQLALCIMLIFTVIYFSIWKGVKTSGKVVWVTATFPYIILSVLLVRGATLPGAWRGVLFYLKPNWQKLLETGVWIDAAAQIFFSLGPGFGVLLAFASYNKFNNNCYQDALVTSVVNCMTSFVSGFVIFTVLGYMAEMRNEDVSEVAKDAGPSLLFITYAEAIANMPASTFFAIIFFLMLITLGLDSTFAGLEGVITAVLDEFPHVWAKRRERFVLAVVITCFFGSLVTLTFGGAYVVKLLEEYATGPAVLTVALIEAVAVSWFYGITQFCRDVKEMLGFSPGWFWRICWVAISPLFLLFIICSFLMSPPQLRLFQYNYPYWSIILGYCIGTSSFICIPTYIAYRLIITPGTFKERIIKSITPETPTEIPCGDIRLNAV

O=C1Cc2cc(CCN3CCN(c4nsc5ccccc45)CC3)c(Cl)cc2N1 [ZIPRASIDONE]
IC50 [1]: 11 nM

CC(COc1ccc2c(c1)NC(=O)CO2)NCC(O)COc1cccc2[nH]ccc12 (stereo not given)
Ki [2]: 50.1 nM

CN(C)C(=O)Oc1ccc2c(c1)C=CCN(C)[C@@H]2CCOc1ccc([N+](=O)[O-])cc1
IC50 [3]: 6 nM

COc1cccc2c1CCCC2CN(C)CCc1ccc2c(c1)OCO2 (stereo not given)
Ki [4]: 6.7 nM | IC50 [3]: 21 nM

CCN(CC)C(=O)[C@@]1(c2ccccc2)CC1CNCC(O)COc1cccc2[nH]ccc12 (stereo not given in full)
Ki [4]: 45 nM | IC50 [3]: 120 nM

CCOC(Cc1ccc(OCCN(C)C2=Nc3ccccc3Sc3ccccc32)cc1)C(=O)O (stereo not given)
Kd [5]: 9800 nM | Kd [6]: 7500 nM

CCO[C@@H](Cc1ccc(OCCn2c3ccccc3c3ccccc32)cc1)C(=O)O
Kd [7]: 3000 nM | Kd [5]: 170 nM | Kd [6]: 360 nM

CCO[C@@H](Cc1ccc(OCC=C(c2ccccc2)c2ccccc2)cc1)C(=O)O
Kd [7]: 5700 nM | Kd [5]: 2700 nM | Kd [6]: 6400 nM

CN1[C@@H]2CC[C@H]1C[C@@H](OC(=O)c1c[nH]c3ccccc13)C2 [TROPISETRON]
Ki [4]: 5.3 nM

CCO[C@@H](Cc1ccc(OCC=C(c2ccc(-c3ccccc3)cc2)c2ccc(-c3ccccc3)cc2)cc1)C(=O)O
Kd [7]: 500 nM | Kd [5]: 300 nM | Kd [6]: 1100 nM

C1=C(c2c[nH]c3ncccc23)CCN(CCOc2cccc3[nH]ccc23)C1
Ki [8]: 1 nM | Ki [9]: 1.5 nM

O=C1COc2ccc(OCCNCCCOc3cccc4[nH]ccc34)cc2N1
Ki [2]: 79.4 nM

COc1cccc2c1CCCC2CN(C)CCc1cccc(F)c1 (stereo not given)
Ki [4]: 3.2 nM | IC50 [3]: 160 nM

O=C(CN1CCN(Cc2ccc(Cl)cc2)CC1)N1CCc2ccccc21
IC50 [1]: 88 nM

COc1ccccc1CN[C@H]1C2CCN(CC2)[C@@H]1C(c1ccccc1)c1ccccc1
IC50 (Substance-K receptor): > 10000 nM

CN(C)CC(O)COc1cccc2[nH]ccc12 (stereo not given)
Ki [4]: 24 nM | Ki [9]: > 7000 nM

CC(C)(C)c1cc(C=C2SC(N)=NC2=O)cc(C(C)(C)C)c1O
IC50 (Cyclooxygenase): 390 nM | IC50 [10]: 770 nM

COc1ccc(-n2nc(C#CC(C)N(O)C(C)=O)cc2-c2ccc(Cl)cc2)cc1 (stereo not given)
IC50 (Cyclooxygenase): 30 nM | IC50 [10]: 110 nM

CC(C)(C)c1cc(C(=O)c2cccs2)cc(C(C)(C)C)c1O [PRIFELONE]
IC50 (Cyclooxygenase): 500 nM | IC50 [10]: 20000 nM

Cc1c(O)c(C)c2sc(NCc3ccc(S(N)(=O)=O)cc3)nc2c1C
IC50 [11]: 230 nM
